For one series, the system named is Apis mellifera. The conditions noted are these: acute, mortality.
A further series deals with Canidae. To be noted: chronic; duration: 1 years; oral; Dog Other; body weight.
A further series concerns Colinus virginianus. The conditions noted are these: mortality.
The next series deals with Daphnia magna. To be noted: chronic/long-term; duration: 21 days.
The test system of the next series is Folsomia candida. The conditions noted are these: chronic/long-term; duration: 28 days.
The test system of the next series is Myriophyllum aquaticum. To be noted: chronic/long-term; duration: 7 days; growth.
A further series deals with Oncorhynchus mykiss. To be noted: acute; duration: 96 hours; mortality.
The next series concerns Pimephales promelas. The conditions noted are these: chronic/long-term; duration: 32 days.
For the next series, the system named is Typhlodromus pyri. As to the kind of experiment: LR50; higher = less toxic. The conditions noted are these: not reported; mortality.

SMILES strings stand for the structures. ≈ marks a conversion by molar mass, not a printed value.

With `O=C1CC=C([O-])N=N1.[K+]` [Maleic hydrazide, potassium salt], the LD50 was greater than 100 µg/piece with Apis mellifera (dermal) and greater than 100 µg/piece in the series with Apis mellifera (oral, unspecified).
For `O=c1ccc(=O)[nH][nH]1` [Maleic hydrazide], the NOAEL with Canidae was found to be 25 mg/kg-day; in the series on Rattus norvegicus (chronic, duration: 2 years, body weight) it was 25 mg/kg-day; in the series on Rattus norvegicus (reproduction developmental, body weight), 398 mg/kg-day; with Rattus norvegicus (short-term, duration: 28 days, inhalation) it was 22 mg/kg-day. In addition, the LD50 in the series on Colinus virginianus (acute, oral) is greater than 1490 mg/kg; in the series with Rattus norvegicus (acute, oral, M/F, mortality) it was greater than 2000 mg/kg. For the same compound, the NOEC worked out at 542 mg/kg-day in the series with Colinus virginianus (chronic); 0.57 mg/L with Daphnia magna; 113 mg/kg with Folsomia candida; 3.2 mg/L in the series on Myriophyllum aquaticum; 9.6 mg/L with Pimephales promelas. In addition, in the series on Oncorhynchus mykiss, the LC50 stood at 79.4 µg/mL (≈ 708 µM). This compound came in with an LR50 in the series on Typhlodromus pyri of less than 3000 g/ha.
